One test addresses T1, OFQ receptor (Rattus norvegicus, UniProt P35370).
T1 construct: in Cos-7 cells transfected with OFQ receptor gene; expressed in transfected cells; host or cells: Cos-7
The test is classed as cell-based. As to conditions: Cos-7 cells transfected with OFQ receptor gene. The source says:
Orphanin FQ is a neuropeptide that structurally resembles an opioid peptide. […] While not being limited to any particular mechanism, the present invention contemplates that Orphanin FQ stimulates peristalsis and enhances colonic transit by inhibiting purinergic pathways in myenteric plexus. To delineate the molecular interactions between OFQR and its ligands, Cos-7 cells were transfected with normal or chimeric OFQR genes. […] The ability of Orphanin FQ and related peptides to inhibit cAMP production in Cos-7 cells was evaluated. […] Dynorphin encoding nucleic acids and gene products are known in the art, see for example, NM_024411, NM_133828, NM_174139, NM_018863, M10088, AH002816, K02268, K02267, Alo34562, U58500, and U38912.

Another test deals with colonic contractions. Kind of test: Colonic contractions after infusion of peptide. Format: in vivo.
The target in test [1] is T2, Orphanin FQ receptor (OFQR) (Rattus norvegicus, UniProt P35370).
T2 construct: expressed in transfected cells; host or cells: Cos-7
Kind of test: Inhibition of [^125I] Y14-OFQ17 binding / specific OFQ binding in Cos-7 cells transfected with normal OFQR gene. The note with it: Cos-7 cells transfected with OFQR gene; for IC50: read-out: IC50, concentration dependent inhibition of [^125I] Y14-OFQ17 binding.

Test [2] deals with circular muscle strips of distal colon. Kind of test: Spontaneous contraction of circular muscle strips of distal colon from rats with postoperative ileus, in vitro. The arrangement: species or system rat. The note with it: strips from rats with PI, 4 h after surgery. On the procedure: In vitro and in vivo colonic motility studies were performed using a known rat model of PI. Rats equipped with a colonic cannula underwent a sham operation or laparotomy plus simple cecum manipulation. Circular muscle strips of distal colon were studied in vitro 4 h after surgery. Cecum manipulation reduced spontaneous colonic muscle contraction by 50% compared to sham operation. […] Similarly, OFQ (10^−7 mol/L) reversed the inhibitory effects; contraction increased 450±60% over basal. […] ATP in myenteric neurons increased 2.5-fold, as measured by quinacrine immunofluorescence. In response to electrical field stimulation, ATP release (luciferase assay) from colonic tissue after cecum manipulation was 50% more than after sham operation. In vivo measurement of colonic transit using carmine migration was performed 4 h after cecum manipulation. In sham-operated rats, carmine migrated 90.8±6.5% of the colon length in 2 h. Cecum manipulation slowed transit 68±5% compared to sham operation. OFQ dose-dependently reversed delayed colonic transit evoked by cecum manipulation (0.5 and 1 nmol/L OFQ improved transit to 76±4% and 94±3%). […] These changes contribute to delayed colonic transit. OFQ, a potent inhibitor of purinergic transmission, reversed PI in rats.

The subject of the next test is colonic transit. Kind of test: Colonic transit (geometric center) after subcutaneous administration. The test is classed as in vivo.

No end group written: not given here.

T2 sequence (P35370 whole entry): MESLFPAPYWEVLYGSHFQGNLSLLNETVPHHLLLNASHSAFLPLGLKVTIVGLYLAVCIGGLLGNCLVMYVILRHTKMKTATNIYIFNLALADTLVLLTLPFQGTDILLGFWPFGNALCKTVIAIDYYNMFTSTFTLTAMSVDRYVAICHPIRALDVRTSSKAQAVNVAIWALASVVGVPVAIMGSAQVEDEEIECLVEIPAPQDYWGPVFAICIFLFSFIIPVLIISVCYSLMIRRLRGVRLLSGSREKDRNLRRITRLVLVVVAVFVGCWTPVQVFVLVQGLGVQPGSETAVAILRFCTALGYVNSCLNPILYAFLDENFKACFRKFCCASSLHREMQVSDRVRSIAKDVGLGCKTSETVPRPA
T1 sequence (P35370 whole entry): as above

For Pertussis toxin, the “effect on the inhibitory action of OFQ on cAMP production” value on OFQ receptor is on record as “reversed the inhibitory action of OFQ”. For “Orphanin FQ(1–12): Orphanin FQ fragment, amino acids 1–12 (FGGFTGARKSAR; Nociceptin; UniProt Q13519 130-141, looked up, fragment)”, the “potency relative to Orphanin FQ(1–17), times less potent” value with colonic contractions (in vivo) is reported as 100 times. In the case of FGGFTGAKKSARKLANQ [R8K], the IC50 in test [1] was 0.1 nM.

For the compound `Nc1c(S(=O)(=O)O)cc(Nc2ccc(Nc3nc(Cl)nc(Nc4cccc(S(=O)(=O)O)c4)n3)c(S(=O)(=O)O)c2)c2c1C(=O)c1ccccc1C2=O` [reactive blue 2], in test [2] (3×10^−5 mol/L), the “enhancement of spontaneous contraction over basal” value (“enhancement … over basal” for short) stood at 287±20%.

For PPADGS, in test [2] (3×10^−5 mol/L), the “enhancement … over basal” value is 5±4%. Consider `Cc1ccc(C(=O)Nc2ccc(S(=O)(=O)O)c3cc(S(=O)(=O)O)cc(S(=O)(=O)O)c23)cc1NC(=O)c1cccc(NC(=O)Nc2cccc(C(=O)Nc3cc(C(=O)Nc4ccc(S(=O)(=O)O)c5cc(S(=O)(=O)O)cc(S(=O)(=O)O)c45)ccc3C)c2)c1` [Suramin], for which the “enhancement … over basal” value in test [2] (10^−4 mol/L) was found to be 210±15%. Take “replacement of Arg^8 by L-alanin: Orphanin FQ with Arg8 replaced by L-alanine (FGGFTGAAKSARKLANQ; Nociceptin; UniProt Q13519 130-146, looked up, variant R8A)”: in the test on colonic contractions (in vivo), the “Orphanin FQ activity of substituted analogues” value is reported as “complete loss of activity”.

“substitution by tyrosine: Orphanin FQ with Phe in position 1 substituted by tyrosine (YGGFTGARKSARKLANQ; Nociceptin; UniProt Q13519 130-146, looked up, variant F1Y)”: in the test with colonic contractions (in vivo), the “Orphanin FQ activity of substituted analogues” value is on record as “no loss of activity”. Regarding “β endorphin 31: opioid peptide tested for effect on OFQ binding”, in test [1], the “effect on OFQ binding” value is reported as “no effect”. For the compound FGGFTGARKSARCLANQ [K13C], in test [1], the IC50 turned out to be 0.1 nM. Regarding “Orphanin FQ(1–13): Orphanin FQ fragment, amino acids 1–13”, in the test on colonic contractions (in vivo), the “potency in stimulating contractions compared with full peptide Orphanin FQ(1–17)” value is reported as “same potency”. For the compound “Dynorphin 17: Dynorphin peptide tested for effect on OFQ binding”, the “effect on OFQ binding” value in test [1] was “no effect”. With FGGFTGARKSA [OFQ11], the IC50 in test [1] amounted to 5000 nM.

“Dyn A: Dynorphin A, peptide with structural homology to Orphanin FQ (YGGFLRRIRPKLKWDNQ; Dynorphin A(1-17); UniProt P01213 207-223, looked up)”: the “colonic transit, geometric center” value was determined as 3.14±0.21 in the test on colonic transit (30 nmol/kg) and 2.42±0.17 in the test with colonic transit (100 nmol/kg). For the same compound, the “type of contractions induced” value in the test with colonic contractions (infusion 100 nmol/kg/min) is listed as “evoked non-migrating simultaneous contractions”.

The record behind these values is patent US7173010B2, “Orphanin FQ receptor” (Regents of the University of Michigan, priority 2003, dated 2007).
